According to the NIST ThermoML archive (doi:10.1016/j.fluid.2008.10.003):

Experiment: isobaric coefficient of expansion
Settings: calorimetric method

CCCCCCO [hexan-1-ol]
isobaric coefficient of expansion
Settings	5000 kPa	10000 kPa	15000 kPa	20000 kPa	25000 kPa	30000 kPa	35000 kPa	40000 kPa	45000 kPa	50000 kPa
278.15 K	0.000821 1/K	0.0008 1/K	0.000788 1/K	0.000778 1/K	0.00076 1/K	0.000748 1/K	0.000733 1/K	0.000723 1/K	0.000716 1/K	0.000708 1/K
298.15 K	0.00085 1/K	0.000832 1/K	0.000812 1/K	0.000796 1/K	0.00078 1/K	0.000764 1/K	0.000749 1/K	0.000734 1/K	0.000724 1/K	0.000712 1/K
328.15 K	0.000929 1/K	0.0009 1/K	0.000876 1/K	0.000854 1/K	0.000833 1/K	0.000813 1/K	0.000794 1/K	0.000776 1/K	0.000759 1/K	0.000745 1/K
348.15 K	0.000995 1/K	0.00096 1/K	0.000929 1/K	0.000903 1/K	0.000875 1/K	0.000852 1/K	0.000831 1/K	0.000808 1/K	0.000791 1/K	0.000772 1/K
